In patent US20170348288A1, “DOSING REGIMENS FOR BETA-3 ADRENOCEPTOR AGONISTS AND ANTI-MUSCARINIC AGENTS FOR THE TREATMENT AND PREVENTION OF LOWER URINARY TRACT SYMPTOMS AND OVERACTIVE BLADDER” (VELICEPT THERAPEUTICS, INC., priority 2016, published 2017):

Key:
[1] = molecular target: T1, murine adipocyte beta-3 adrenoceptor (Mus musculus, UniProt P25962); details: literature report, cited from earlier work
T1 construct: host or cells: murine adipocytes (no further detail)

beta-3 adrenoceptor [2] = molecular target: T2, beta-3 adrenoceptor (Rattus norvegicus, UniProt P26255); test: Pilot cumulative concentration response curves to determine EC90 for inhibition of EFS-induced contraction in rat isolated bladder; details: rat isolated bladder strips, EFS 15 Hz, CCRC half-log increments; calculated values; read-out: EC90 concentration to inhibit EFS-induced contraction in rat isolated bladder
T2 construct: The bladder longitudinal smooth muscle, with the urothelium still attached were mounted in 25 ml organ baths; from tissue; host or cells: rat urinary bladder (longitudinal smooth muscle with urothelium), male CD rats
T2 sequence (P26255 whole entry): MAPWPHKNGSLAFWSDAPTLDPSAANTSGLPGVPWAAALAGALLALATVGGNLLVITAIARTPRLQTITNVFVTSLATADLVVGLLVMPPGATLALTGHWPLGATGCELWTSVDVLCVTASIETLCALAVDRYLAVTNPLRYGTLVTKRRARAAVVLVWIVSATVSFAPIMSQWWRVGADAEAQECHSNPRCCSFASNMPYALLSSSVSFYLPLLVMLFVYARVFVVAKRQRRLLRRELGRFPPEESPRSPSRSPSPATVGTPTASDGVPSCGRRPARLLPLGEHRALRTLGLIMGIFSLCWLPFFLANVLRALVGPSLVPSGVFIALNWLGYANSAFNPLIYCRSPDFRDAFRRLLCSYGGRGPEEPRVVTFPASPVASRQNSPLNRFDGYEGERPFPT
Experimental: Macroscopically normal bladders from Male CD rats (220-250 g) were used. […] Each bladder was cleaned free of surrounding connective tissue and halved longitudinally. The bladder longitudinal smooth muscle, with the urothelium still attached were mounted in 25 ml organ baths containing physiological saline solution (PSS) (composition: 119.0 mM NaCl, 4.7 mM KCl, 1.2 mM MgSO4, 24.9 mM NaHCO3, 1.2 mM KH2PO4, 2.5 mM CaCl2 and 11.1 mM glucose) supplemented with 1 μM prazosin (α1-adrenoceptor antagonist) and 30 nM ICI118551 (β2-adrenoceptor antagonist), aerated with 95% O2/5% CO2 gas mix, warmed and maintained at approximately 37° C. throughout the experiment. Changes in force production were recorded using transducers. […]
EFS parameters and viability check: In initial experiments the parameters for the EFS were assessed by performing a frequency curve to determine a frequency that would give a response that was approximately 80% of the response seen to 80 mM KCl. Optimal EFS parameters were determined to be: 30 Volts, square pulse of 0.1 ms, train of 4 seconds every 120 seconds, 15 Hz. […]
Pilot studies to determine EC90 concentrations of the test compounds were performed. […] From the data obtained in these experiments, EC90 concentrations of the test compounds were determined for use in subsequent experiments. […]

beta-3 adrenoceptor [3] = molecular target: T2, beta-3 adrenoceptor; test: Desensitization and washout: CCRC on EFS-induced contraction of rat bladder strips after pre-incubation with the EC90 concentration and washing with PSS
Experimental: Macroscopically normal bladders from Male CD rats (220-250 g) were used. […] Each bladder was cleaned free of surrounding connective tissue and halved longitudinally. The bladder longitudinal smooth muscle, with the urothelium still attached were mounted in 25 ml organ baths containing physiological saline solution (PSS) (composition: 119.0 mM NaCl, 4.7 mM KCl, 1.2 mM MgSO4, 24.9 mM NaHCO3, 1.2 mM KH2PO4, 2.5 mM CaCl2 and 11.1 mM glucose) supplemented with 1 μM prazosin (α1-adrenoceptor antagonist) and 30 nM ICI118551 (β2-adrenoceptor antagonist), aerated with 95% O2/5% CO2 gas mix, warmed and maintained at approximately 37° C. throughout the experiment. Changes in force production were recorded using transducers. After mounting, the bladder halves were allowed to equilibrate for at least 30 min before they were set to a stable tension of approximately 1.0 g. The tissue was then allowed to equilibrate over at least a 60 min period with washes every 15 min.
EFS parameters and viability check: In initial experiments the parameters for the EFS were assessed by performing a frequency curve to determine a frequency that would give a response that was approximately 80% of the response seen to 80 mM KCl. Optimal EFS parameters were determined to be: 30 Volts, square pulse of 0.1 ms, train of 4 seconds every 120 seconds, 15 Hz. This frequency was then used to stimulate the tissue for all subsequent experiments. The viability of bladder strips was tested by stimulating the tissue with EFS for minimum of ten min.
The bladder muscle strips were incubated with the EC90 determined for each test compound in the pilot studies, for a period of 1 or 3 hr. Following compound incubation, the tissues were washed with PSS for a period of 1, 3 or 6 hr, with washes approximately every 15 min, to remove the drug. At the end of the final wash period the tissues were stimulated with EFS, and left to equilibrate for at least 30 min. -A CCRC was then performed in each tissue.

[4] = three hr incubation with EC90, one hr of washing
[5] = three hr incubation, low and mid-concentration range

T1 sequence (P25962 whole entry): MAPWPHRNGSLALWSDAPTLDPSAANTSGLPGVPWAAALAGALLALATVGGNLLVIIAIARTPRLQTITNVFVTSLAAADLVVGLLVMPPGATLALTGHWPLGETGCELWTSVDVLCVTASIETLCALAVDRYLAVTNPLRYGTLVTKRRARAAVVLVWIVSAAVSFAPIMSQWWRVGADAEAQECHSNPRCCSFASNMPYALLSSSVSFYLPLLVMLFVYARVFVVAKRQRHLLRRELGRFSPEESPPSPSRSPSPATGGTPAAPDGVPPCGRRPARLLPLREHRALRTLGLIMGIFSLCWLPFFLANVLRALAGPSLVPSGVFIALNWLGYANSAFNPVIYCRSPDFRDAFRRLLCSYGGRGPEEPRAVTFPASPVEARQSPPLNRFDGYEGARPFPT

SMILES	Functional response following prolonged exposure to the beta-3 agonist ([1]; murine adipocytes)	Effect on murine adipocyte beta-3 adrenoceptor [1]	EC90 (beta-3 adrenoceptor [2]) [µM]	Responses to the agonist (CCRC, reduction of EFS-induced contraction) vs vehicle-incubated tissue (beta-3 adrenoceptor [3]; [4])	Potentiation of EFS-induced contraction from baseline (beta-3 adrenoceptor [3]; [5])	Concentration range in which the EFS-mediated response was potentiated (beta-3 adrenoceptor [3]; following 1 or 3 hr of washout) [nM]	Responses to the agonist (CCRC, reduction of EFS-induced contraction) vs vehicle-incubated tissue (beta-3 adrenoceptor [3]; one hr incubation with EC90, one hr of washing with PSS)	Responses to the agonist (CCRC, reduction of EFS-induced contraction) vs vehicle-incubated tissue (beta-3 adrenoceptor [3]; one hr incubation with EC90, three hr of washing, higher concentrations)	Potentiation of EFS-induced contraction from baseline (beta-3 adrenoceptor [3]; one hr incubation, lower and mid-concentration range)	Responses to the agonist (CCRC, reduction of EFS-induced contraction) vs vehicle-incubated tissue (beta-3 adrenoceptor [3]; three hr incubation with EC90, three hr of washing, highest concentrations)
C[C@H](Cc1ccc2c(c1)OC(C(=O)[O-])(C(=O)[O-])O2)NC[C@H](O)c1cccc(Cl)c1.[Na+].[Na+] [CL-316,243]	attenuated	down-regulation	0.042	significantly attenuated	not observed					
Nc1nc(CC(=O)Nc2ccc(CCNC[C@H](O)c3ccccc3)cc2)cs1 [mirabegron, (R)-2-(2-aminothiazol-4-yl)-N-(4-(2-((2-hydroxy-2-phenylethyl)amino)ethyl)phenyl)acetamide]			15.3	significantly attenuated	marked potentiation of EFS-induced contraction	10 to 1000	significantly attenuated	significantly attenuated	marked potentiation of EFS-induced contraction	significantly attenuated
